Experimental data taken from PubChem BioAssay AID2060325 (Molecular Pharmacology Branch, DTP, NCI, 2025).
pIC50: −log10 of the molar value.

Tested on: SK-OV-3 multi-cell spheroids, viability
Assay: Anticancer human tumor SK-OV-3 cell line growth inhibition [IpAb];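 as to viability, T/C: viability read after seven days of drug exposure; percent of DMSO vehicle control luminescence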
Details: for pIC50: curve of first compound; for viability, T/C: stronger effect = lower value
Outline: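 Combinations with ipatasertib or abemaciclib were tested on tumour spheroids holding HUVEC (25%) and MSC (15%) alongside 60% malignant cells. Top concentration was at or near clinical Cmax (10 microM if undefined), descending in half-log steps.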

[1] = second compound 0.01 µM, first compound 0.0316 µM
[2] = second compound 0.01 µM, first compound 0.1 µM
[3] = second compound 0.01 µM, first compound 0.316 µM
[4] = second compound 0.01 µM, first compound 1 µM
[5] = second compound 0.0316 µM, first compound 0.0316 µM
[6] = second compound 0.0316 µM, first compound 0.1 µM
[7] = second compound 0.0316 µM, first compound 0.316 µM
[8] = second compound 0.0316 µM, first compound 1 µM
[9] = second compound 0.1 µM, first compound 0.00316 µM
[10] = second compound 0.1 µM, first compound 0.01 µM
[11] = second compound 0.1 µM, first compound 0.0316 µM
[12] = second compound 0.1 µM, first compound 0.1 µM
[13] = second compound 0.1 µM, first compound 0.316 µM
[14] = second compound 0.1 µM, first compound 1 µM
[15] = second compound 0.316 µM, first compound 0.00316 µM
[16] = second compound 0.316 µM, first compound 0.01 µM
[17] = second compound 0.316 µM, first compound 0.0316 µM
[18] = second compound 0.316 µM, first compound 0.1 µM
[19] = second compound 0.316 µM, first compound 0.316 µM
[20] = second compound 0.316 µM, first compound 1 µM
[21] = second compound 1 µM, first compound 0.00316 µM
[22] = second compound 1 µM, first compound 0.01 µM
[23] = second compound 1 µM, first compound 0.0316 µM
[24] = second compound 1 µM, first compound 0.1 µM
[25] = second compound 1 µM, first compound 0.316 µM
[26] = second compound 1 µM, first compound 1 µM
[27] = second compound 3.16 µM, first compound 0.0316 µM
[28] = second compound 3.16 µM, first compound 0.1 µM
[29] = second compound 10 µM, first compound 0.0316 µM
[30] = second compound 10 µM, first compound 0.1 µM
[31] = second compound 0.01 µM, first compound 3.16 µM
[32] = second compound 0.01 µM, first compound 10 µM
[33] = second compound 0.0316 µM, first compound 3.16 µM
[34] = second compound 0.0316 µM, first compound 10 µM
[35] = second compound 0.1 µM, first compound 3.16 µM
[36] = second compound 0.1 µM, first compound 10 µM
[37] = second compound 0.316 µM, first compound 3.16 µM
[38] = second compound 0.316 µM, first compound 10 µM
[39] = second compound 1 µM, first compound 3.16 µM
[40] = second compound 1 µM, first compound 10 µM

Compound `COc1c(OCCCN2CCOCC2)ccc2c3n(c(=NC(=O)c4cnc(N)nc4)nc12)CCN3` + CCN1CCN(Cc2ccc(Nc3ncc(F)c(-c4cc(F)c5nc(C)n(C(C)C)c5c4)n3)nc2)CC1 has a pIC50 (second compound 0.01 µM) of 8.19, a pIC50 (second compound 0.0316 µM) of 8.38 and a pIC50 (second compound 0.1 µM) greater than 8.50. It also gave a pIC50 (second compound 0.316 µM) greater than 8.50, a pIC50 (second compound 1 µM) greater than 8.50 and a viability, T/C (second compound 0.01 µM, first compound 0.00316 µM) of 68%. The viability, T/C (second compound 0.01 µM, first compound 0.01 µM) was 38.6%, the viability, T/C [1] was 12.6% and the viability, T/C [2] was 7.16%. For the same compound, the viability, T/C [3] was 5.33%, the viability, T/C [4] was 3.04% and the viability, T/C (second compound 0.0316 µM, first compound 0.00316 µM) was 56.2%. The viability, T/C (second compound 0.0316 µM, first compound 0.01 µM) was 30.5%, the viability, T/C [5] was 9.9% and the viability, T/C [6] was 6.3%. For the same compound, the viability, T/C [7] was 5%, the viability, T/C [8] was 2.92% and the viability, T/C [9] was 43%. It also gave a viability, T/C [10] of 23.7%, a viability, T/C [11] of 10.4% and a viability, T/C [12] of 5.9%. The viability, T/C [13] was 5.13%, the viability, T/C [14] was 2.59% and the viability, T/C [15] was 42.1%. It also gave a viability, T/C [16] of 22.4%, a viability, T/C [17] of 9.73% and a viability, T/C [18] of 6.47%. It also gave a viability, T/C [19] of 5.55%, a viability, T/C [20] of 3.33% and a viability, T/C [21] of 40.2%. The viability, T/C [22] was 23.2%, the viability, T/C [23] was 10.2% and the viability, T/C [24] was 6.83%. The viability, T/C [25] was 5.51% and the viability, T/C [26] was 4.14%.
`Cn1ncnc1[C@H]1c2n[nH]c(=O)c3cc(F)cc(c23)N[C@@H]1c1ccc(F)cc1` + CC(C)NCC(C(=O)N1CCN(c2ncnc3c2C(C)CC3O)CC1)c1ccc(Cl)cc1 showed a pIC50 (second compound 0.1 µM) of less than 7.00, a pIC50 (second compound 0.316 µM) greater than 9.50 and a pIC50 (second compound 1 µM) greater than 9.50. For the same compound, the pIC50 (second compound 3.16 µM) was greater than 9.50, the pIC50 (second compound 10 µM) was greater than 9.50 and the viability, T/C (second compound 0.1 µM, first compound 0.000316 µM) was 74.2%. For the same compound, the viability, T/C (second compound 0.1 µM, first compound 0.001 µM) was 78.8%, the viability, T/C [9] was 60.9% and the viability, T/C [10] was 69.4%. For the same compound, the viability, T/C [11] was 65.4%, the viability, T/C [12] was 58.8% and the viability, T/C (second compound 0.316 µM, first compound 0.000316 µM) was 34.5%. It also gave a viability, T/C (second compound 0.316 µM, first compound 0.001 µM) of 39.5%, a viability, T/C [15] of 41.2% and a viability, T/C [16] of 38.4%. For the same compound, the viability, T/C [17] was 38.3%, the viability, T/C [18] was 33.2% and the viability, T/C (second compound 1 µM, first compound 0.000316 µM) was 22.9%. For the same compound, the viability, T/C (second compound 1 µM, first compound 0.001 µM) was 21.5%, the viability, T/C [21] was 20.5% and the viability, T/C [22] was 20.4%. For the same compound, the viability, T/C [23] was 20.9%, the viability, T/C [24] was 19% and the viability, T/C (second compound 3.16 µM, first compound 0.000316 µM) was 19%. For the same compound, the viability, T/C (second compound 3.16 µM, first compound 0.001 µM) was 17.1%, the viability, T/C (second compound 3.16 µM, first compound 0.00316 µM) was 15.1% and the viability, T/C (second compound 3.16 µM, first compound 0.01 µM) was 15.4%. It also gave a viability, T/C [27] of 12.8%, a viability, T/C [28] of 16.1% and a viability, T/C (second compound 10 µM, first compound 0.000316 µM) of 10.3%. It also gave a viability, T/C (second compound 10 µM, first compound 0.001 µM) of 10.1%, a viability, T/C (second compound 10 µM, first compound 0.00316 µM) of 10.3% and a viability, T/C (second compound 10 µM, first compound 0.01 µM) of 9.69%. For the same compound, the viability, T/C [29] was 8.59% and the viability, T/C [30] was 9.45%.
`C=CC(=O)N1CCN(c2nc(=O)n(-c3c(C)ccnc3C(C)C)c3nc(-c4c(O)cccc4F)c(F)cc23)C(C)C1` (stereo not given) + CCN1CCN(Cc2ccc(Nc3ncc(F)c(-c4cc(F)c5nc(C)n(C(C)C)c5c4)n3)nc2)CC1 gave a pIC50 (second compound 0.01 µM) of less than 5.00, a pIC50 (second compound 0.0316 µM) of less than 5.00 and a pIC50 (second compound 0.1 µM) of less than 5.00. For the same compound, the pIC50 (second compound 0.316 µM) was less than 5.00, the pIC50 (second compound 1 µM) was less than 5.00 and the viability, T/C [1] was 89.9%. For the same compound, the viability, T/C [2] was 99.2%, the viability, T/C [3] was 93.8% and the viability, T/C [4] was 107%. It also gave a viability, T/C [31] of 96.5%, a viability, T/C [32] of 61.7% and a viability, T/C [5] of 74.4%. It also gave a viability, T/C [6] of 82.8%, a viability, T/C [7] of 79% and a viability, T/C [8] of 81.8%. The viability, T/C [33] was 85.4%, the viability, T/C [34] was 53.8% and the viability, T/C [11] was 58.8%. It also gave a viability, T/C [12] of 66.5%, a viability, T/C [13] of 65.5% and a viability, T/C [14] of 69%. It also gave a viability, T/C [35] of 73.2%, a viability, T/C [36] of 47.1% and a viability, T/C [17] of 53.7%. The viability, T/C [18] was 59%, the viability, T/C [19] was 61.8% and the viability, T/C [20] was 61%. For the same compound, the viability, T/C [37] was 62.8%, the viability, T/C [38] was 48% and the viability, T/C [23] was 47%. For the same compound, the viability, T/C [24] was 53.3%, the viability, T/C [25] was 53.7% and the viability, T/C [26] was 55.5%. It also gave a viability, T/C [39] of 57.5% and a viability, T/C [40] of 46.9%.
`Cc1nc(NC(=O)N2CCCC2C(N)=O)sc1-c1ccnc(C(C)(C)C(F)(F)F)c1` (stereo not given) + CCN1CCN(Cc2ccc(Nc3ncc(F)c(-c4cc(F)c5nc(C)n(C(C)C)c5c4)n3)nc2)CC1 was tested, and the pIC50 (second compound 0.01 µM) was 6.62, the pIC50 (second compound 0.0316 µM) was 6.95 and the pIC50 (second compound 0.1 µM) was 7.48. It also gave a pIC50 (second compound 0.316 µM) greater than 7.50, a pIC50 (second compound 1 µM) greater than 7.50 and a viability, T/C [1] of 82.9%. For the same compound, the viability, T/C [2] was 70%, the viability, T/C [3] was 43.1% and the viability, T/C [4] was 20.7%. For the same compound, the viability, T/C [31] was 9.47%, the viability, T/C [32] was 5.17% and the viability, T/C [5] was 66.5%. The viability, T/C [6] was 52.3%, the viability, T/C [7] was 31.7% and the viability, T/C [8] was 17.5%. It also gave a viability, T/C [33] of 8.57%, a viability, T/C [34] of 4.47% and a viability, T/C [11] of 50.1%. The viability, T/C [12] was 40.5%, the viability, T/C [13] was 23.9% and the viability, T/C [14] was 15.6%. The viability, T/C [35] was 9.26%, the viability, T/C [36] was 4.48% and the viability, T/C [17] was 43.2%. It also gave a viability, T/C [18] of 37.1%, a viability, T/C [19] of 28.4% and a viability, T/C [20] of 15.7%. For the same compound, the viability, T/C [37] was 7.93%, the viability, T/C [38] was 5.24% and the viability, T/C [23] was 39.5%. For the same compound, the viability, T/C [24] was 34.7%, the viability, T/C [25] was 23.9% and the viability, T/C [26] was 15.9%. It also gave a viability, T/C [39] of 9.43% and a viability, T/C [40] of 4.78%.
Work on `Cn1ncc(Cl)c1-c1cc(C(=O)NC(CN)Cc2cccc(F)c2)sc1Cl` (stereo not given) + CC(C)NCC(C(=O)N1CCN(c2ncnc3c2C(C)CC3O)CC1)c1ccc(Cl)cc1 yielded a pIC50 (second compound 0.1 µM) of 7.23, a pIC50 (second compound 0.316 µM) greater than 7.50 and a pIC50 (second compound 1 µM) greater than 7.50. The pIC50 (second compound 3.16 µM) was greater than 7.50, the pIC50 (second compound 10 µM) was greater than 7.50 and the viability, T/C [11] was 62.6%. For the same compound, the viability, T/C [12] was 38.1%, the viability, T/C [13] was 25% and the viability, T/C [14] was 16.4%. For the same compound, the viability, T/C [35] was 8.41%, the viability, T/C [36] was 0.21% and the viability, T/C [17] was 36.4%. The viability, T/C [18] was 28.2%, the viability, T/C [19] was 19.7% and the viability, T/C [20] was 13.8%. The viability, T/C [37] was 8.71%, the viability, T/C [38] was 0.38% and the viability, T/C [23] was 20.7%. For the same compound, the viability, T/C [24] was 18.3%, the viability, T/C [25] was 17.6% and the viability, T/C [26] was 13.6%. It also gave a viability, T/C [39] of 8.68%, a viability, T/C [40] of 0.2% and a viability, T/C [27] of 15.7%. The viability, T/C [28] was 15.9%, the viability, T/C (second compound 3.16 µM, first compound 0.316 µM) was 15.9% and the viability, T/C (second compound 3.16 µM, first compound 1 µM) was 12.9%. The viability, T/C (second compound 3.16 µM, first compound 3.16 µM) was 6.61%, the viability, T/C (second compound 3.16 µM, first compound 10 µM) was 0.36% and the viability, T/C [29] was 10.6%. The viability, T/C [30] was 11.4%, the viability, T/C (second compound 10 µM, first compound 0.316 µM) was 9.32% and the viability, T/C (second compound 10 µM, first compound 1 µM) was 6.87%. It also gave a viability, T/C (second compound 10 µM, first compound 3.16 µM) of 4.93% and a viability, T/C (second compound 10 µM, first compound 10 µM) of 0.28%.
